Where a name gives a salt, the structure may show the parent alone.

The values below come from patent publication US8685436B2, “Use of hydroxyflavanones for masking bitter taste” (Symrise AG, priority 2001, dated 2014).

Test [1] can be described thus: Debittering black tea, bitterness rated by an expert group. The test is classed as in vivo. The settings on record: Tea sample 2 + 0.05% homoeriodictyol disodium salt; scale 1 just perceptibly bitter, 5 very bitter; tea sample 2 alone rated 5. How it is done: Two different types of black tea were brewed using boiling water (3 g of tea to 100 ml, allowed to infuse for 3 min, filter) and were then tasted by an expert group. The bitterness was rated using a scale of 1 to 5 (1 just perceptibly bitter, 5 very bitter).

Test [2] can be described thus: Masking the bitter taste of a β-lactam antibiotic, difference testing and bitter intensity rating by 7 testers. The test is classed as in vivo. The text has this: A solution of Faropenem Daloxate ([5R-[3(R*),5α,6α(R*)]]-6-(1-hydroxyethyl)-7-oxo-3-(tetrahydro-2-furanyl)-4-thia-1-azabicyclo[3.2.0]hept-2-ene-2-carboxylic acid (5-methyl-2-oxo-1,3-dioxol-4-yl)methyl ester, CAS No. 141702-36-5, 0.1% by weight in water, sample 1) and a mixture of Faropenem Daloxate+homoeriodictyol disodium salt (each 0.1% by weight in water, sample 2) were made up. A group of 7 testers were each given 3 samples for difference testing. 4 testers received sample 1 as a duplicate sample, 3 testers received sample 2 as a duplicate sample. The samples were tasted in differing orders. Of 7 testers, 7 correctly identified the individual sample. The average bitter intensity of sample 1 was rated 5, that of sample 2 was rated 2 (scale 1 to 5).

The conditions of test [3]: relatively high concentrations (450 ppm); cited from earlier work.

As for `COc1cc(C2CC(=O)c3c(O)cc(O)cc3O2)ccc1O` (stereo not shown) [homoeriodictyol disodium salt, 2-(4-hydroxy-3-methoxyphenyl)-5,7-dihydroxychroman-4-one], the “Rating (1–5) of bitterness” value in test [1] was 2. Further, the “average bitter intensity (scale 1 to 5)” value in test [2] (sample 2: Faropenem Daloxate + homoeriodictyol disodium salt, each 0.1% by weight in water) was found to be 2.

As to `Cc1oc(=O)oc1COC(=O)C1=C([C@H]2CCCO2)S[C@@H]2[C@@H]([C@@H](C)O)C(=O)N12` (relative stereo) [Faropenem Daloxate, [5R-[3(R*),5α,6α(R*)]]-6-(1-hydroxyethyl)-7-oxo-3-(tetrahydro-2-furanyl)-4-thia-1-azabicyclo[3.2.0]hept-2-ene-2-carboxylic acid (5-methyl-2-oxo-1,3-dioxol-4-yl)methyl ester], the “average bitter intensity (scale 1 to 5)” value in test [2] (sample 1: Faropenem Daloxate alone, 0.1% by weight in water) is 5.

`COc1ccc(OC(C)C(=O)[O-])cc1.[Na+]` (stereo not shown) [Lactisol, 2(-4-Methoxyphenoxy)propionic acid sodium salt]: the bitter-reducing effect result in test [3] is reported as “weak bitter-reducing effect”.
